Laboratory results as given in US20170152263A1, “Substituted Indazole Compounds as IRAK4 Inhibitors” (AURIGENE DISCOVERY TECHNOLOGIES LIMITED, priority 2014, published 2017).
Counter-ions that a name gives are not always drawn.

Target: T1, recombinant IRAK-4 kinase (Homo sapiens, UniProt Q9NWZ3)
T1 construct: purchased Millipore, USA
T1 sequence (Q9NWZ3 1-460): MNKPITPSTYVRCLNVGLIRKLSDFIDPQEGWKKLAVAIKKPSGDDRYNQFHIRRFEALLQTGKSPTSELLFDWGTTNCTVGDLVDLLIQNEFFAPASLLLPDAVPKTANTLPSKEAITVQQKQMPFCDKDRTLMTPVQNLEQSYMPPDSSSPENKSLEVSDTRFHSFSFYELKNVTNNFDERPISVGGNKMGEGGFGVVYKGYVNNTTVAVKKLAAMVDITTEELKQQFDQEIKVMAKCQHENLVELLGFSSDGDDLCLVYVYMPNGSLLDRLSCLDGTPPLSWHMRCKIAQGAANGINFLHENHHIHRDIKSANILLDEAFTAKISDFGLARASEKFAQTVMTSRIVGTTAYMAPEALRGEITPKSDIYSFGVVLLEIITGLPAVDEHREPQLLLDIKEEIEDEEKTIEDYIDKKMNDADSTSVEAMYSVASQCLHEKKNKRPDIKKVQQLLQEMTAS
Test: IRAK-4 biochemical assay (TR-FRET)
Details: IRAK-4 enzyme, 20 μM ATP; for inhibition at 1 µM: compound at 1 μM; for IC50: dose response; for inhibition at 0.1 µM: compound at 0.1 μM
Experimental: Compounds were tested for their potential to inhibit IRAK-4 enzyme in a TR-FRET assay using recombinant IRAK-4 kinase from Millipore, USA. The assay buffer was 50 mM Tris-HCl pH 7.5, 20 mM MgCl2, 1 mM EGTA, 2 mM DTT, 3 mM MnCl2 and 0.01% Tween 20.5 ng of IRAK-4 kinase was used for the assay. After pre-incubation of enzyme with test compound for 30 minutes at room temperature, a substrate mixture containing 100 nM Biotin Histone H3 (Millipore, USA) and 20 μM ATP (Sigma, USA) was added and the reaction was incubated for 30 min. Post incubation, the reaction was stopped by the addition of stop mix containing 40 mM EDTA, 1 nM of Europium-Anti-Phospho-Histone H3 (Ser10) antibody (Perkin Elmer, USA) and 20 nM SureLight Allophycocyanin-Streptavidin (Perkin Elmer, USA). The fluorescence emission at 615 nm and 665 nm were measured at an excitation of 340 nm and the percent inhibition was estimated from the ratio of the fluorescence intensities [(F665/F615)×10000]. […] The IC50 values were estimated by fitting the dose-response data to sigmoidal dose response (variable slope), curve fitting program using Graphpad Prism software Version 6.01.

inhibition at 1 µM [%]	IC50 [nM]	inhibition at 0.1 µM [%]	Compound
98	< 100		Cc1cc(-c2nc(C(=O)Nc3cc4nn(C)cc4cc3N3CCCCC3)co2)ccn1 [Example 2, N—(2-methyl-5-(piperidin-1-yl)-2H-indazol-6-yl)-2-(2-methylpyridin-4-yl)oxazole-4-carboxamide hydrochloride]
73	> 250	90	Cn1cc2cc(N3CCCCC3)c(NC(=O)c3cccc(N4CC[C@H](O)C4)n3)cc2n1 [Example 3, (S)-6-(3-hydroxypyrrolidin-1-yl)—N—(2-methyl-5-(piperidin-1-yl)-2H-indazol-6-yl)picolinamide]
96	< 100	94	Cn1ncc2cc(N3CC[C@H](O)C3)c(NC(=O)c3coc(-c4ccnc(N)c4)n3)cc21 [Example 18, (S)-2-(2-aminopyridin-4-yl)—N—(5-(3-hydroxypyrrolidin-1-yl)-1-methyl-1H-indazol-6-yl)oxazole-4-carboxamide]
37		0	Cn1ncc2cc(N3CC[C@H](O)C3)c(NC(=O)c3coc(N4CCNCC4)n3)cc21 [Example 31, (S)—N—(5-(3-hydroxypyrrolidin-1-yl)-1-methyl-1H-indazol-6-yl)-2-(piperazin-1-yl)oxazole-4-carboxamide hydrochloride]
98	< 100	95	Cc1cc(-c2nc(C(=O)Nc3cc4c(cnn4C)cc3N3CC[C@H](O)C3)co2)ccn1 [Example 11, (S)—N—(5-(3-hydroxypyrrolidin-1-yl)-1-methyl-1H-indazol-6-yl)-2-(2-methylpyridin-4-yl)oxazole-4-carboxamide hydrochloride]
96	< 100	94	Cc1cc(-c2nc(C(=O)Nc3cc4nn(C)cc4cc3N3CCCC(F)C3)co2)ccn1 (stereo not drawn) [Example 14, N—(5-(3-fluoropiperidin-1-yl)-2-methyl-2H-indazol-6-yl)-2-(2-methylpyridin-4-yl)oxazole-4-carboxamide]
97	< 100	96	Cc1cc(-c2nc(C(=O)Nc3cc4c(cnn4C)cc3N3CCC(CO)CC3)co2)ccn1 [Example 20, N-(5-(4-(hydroxymethyl)piperidin-1-yl)-1-methyl-1H-indazol-6-yl)-2-(2-methylpyridin-4-yl)oxazole-4-carboxamide]
90	100 to 250	96	Cn1cc2cc(N3CCCCC3)c(NC(=O)c3coc(N4CC[C@H](O)C4)n3)cc2n1 [Example 6, (S)-2-(3-hydroxypyrrolidin-1-yl)—N—(2-methyl-5-(piperidin-1-yl)-2H-indazol-6-yl)oxazole-4-carboxamide]
97	< 100	93	Cn1ncc2cc(N3CC[C@H](O)C3)c(NC(=O)c3coc(-c4ccnc(C5CC5)c4)n3)cc21 [Example 46, (S)-2-(2-cyclopropylpyridin-4-yl)—N—(5-(3-hydroxypyrrolidin-1-yl)-1-methyl-1H-indazol-6-yl)oxazole-4-carboxamide hydrochloride]
96	< 100	89	Cc1cc(-c2nc(C(=O)Nc3cc4c(cnn4C)cc3N3CC[C@@H](O)C3)co2)ccn1 [Example 22, (R)—N—(5-(3-hydroxypyrrolidin-1-yl)-1-methyl-1H-indazol-6-yl)-2-(2-methylpyridin-4-yl)oxazole-4-carboxamide]
1		2	Cc1cc(-c2nc(C)c(C(=O)Nc3cc4c(cnn4C)cc3N3CC[C@H](O)C3)o2)ccn1 [Example 36, hydrochloride]
89	100 to 250	34	Cn1cc2cc(N3CCC(O)CC3)c(NC(=O)c3cnn4cccnc34)cc2n1 [Example 47, N—(5-(4-hydroxypiperidin-1-yl)-2-methyl-2H-indazol-6-yl)pyrazolo[1,5-a]pyrimidine-3-carboxamide hydrochloride]
98	< 100	96	Cn1ncc2cc(N3CC[C@H](O)C3)c(NC(=O)c3coc(-c4ccnc(N)c4F)n3)cc21 [Example 28, (S)-2-(2-amino-3-fluoropyridin-4-yl)—N—(5-(3-hydroxypyrrolidin-1-yl)-1-methyl-1H-indazol-6-yl)oxazole-4-carboxamide]
97	< 100	83	CCc1cc(-c2nc(C(=O)Nc3cc4c(cnn4C)cc3N3CC[C@H](O)C3)co2)ccn1 [Example 42, (S)-2-(2-ethylpyridin-4-yl)—N—(5-(3-hydroxypyrrolidin-1-yl)-1-methyl-1H-indazol-6-yl)oxazole-4-carboxamide hydrochloride]
71	> 250	24	Cn1ncc2cc(N3CC[C@H](O)C3)c(NC(=O)c3cccc(N4CC[C@H](O)C4)n3)cc21 [Example 25, 6-((S)-3-hydroxypyrrolidin-1-yl)—N—(5-((S)-3-hydroxypyrrolidin-1-yl)-1-methyl-1H-indazol-6-yl)picolinamide]
93	100 to 250	45	Cc1nccc(-c2nc(C(=O)Nc3cc4c(cnn4C)cc3N3CC[C@H](O)C3)co2)n1 [Example 35, (S)—N—(5-(3-hydroxypyrrolidin-1-yl)-1-methyl-1H-indazol-6-yl)-2-(2-methylpyrimidin-4-yl)oxazole-4-carboxamide hydrochloride]
	< 100	79	Cc1cc(-c2nc(C(=O)Nc3cc4nn(C)cc4cc3N3CCCC(O)C3)co2)ccn1 (stereo not drawn) [Example 13, N—(5-(3-hydroxypiperidin-1-yl)-2-methyl-2H-indazol-6-yl)-2-(2-methylpyridin-4-yl)oxazole-4-carboxamide hydrochloride]
82	> 250	95	Cn1cc2cc(N3CCCCC3)c(NC(=O)c3coc(N4CC[C@H](N)C4)n3)cc2n1 [Example 5, (S)-2-(3-aminopyrrolidin-1-yl)—N—(2-methyl-5-(piperidin-1-yl)-2H-indazol-6-yl)oxazole-4-carboxamide]
95	< 100	62	CCn1ncc2cc(N3CC[C@H](O)C3)c(NC(=O)c3coc(-c4ccnc(C)c4)n3)cc21 [Example 32, (S)—N—(1-ethyl-5-(3-hydroxypyrrolidin-1-yl)-1H-indazol-6-yl)-2-(2-methylpyridin-4-yl)oxazole-4-carboxamide hydrochloride]
83	> 250	93	Cn1cc2cc(N3CCCCC3)c(NC(=O)c3cccc(N4CC[C@H](N)C4)n3)cc2n1 [Example 7, (S)-6-(3-aminopyrrolidin-1-yl)—N—(2-methyl-5-(piperidin-1-yl)-2H-indazol-6-yl)picolinamide]
84	100 to 250	41	Cc1cc(-c2nc(C(=O)Nc3cc4c(cnn4C)cc3N3CC[C@H](O)C3)co2)cc(C)n1 [Example 21, (S)-2-(2,6-dimethylpyridin-4-yl)—N—(5-(3-hydroxypyrrolidin-1-yl)-1-methyl-1H-indazol-6-yl)oxazole-4-carboxamide]
54		0	Cc1cc(-c2nc(C(=O)Nc3cc4c(cnn4CC4CCNCC4)cc3N3CC[C@H](O)C3)co2)ccn1 [Example 44, (S)—N—(5-(3-hydroxypyrrolidin-1-yl)-1-(piperidin-4-ylmethyl)-1H-indazol-6-yl)-2-(2-methylpyridin-4-yl)oxazole-4-carboxamide hydrochloride]

Compound	inhibition at 1 µM [%]	IC50 [nM]	inhibition at 0.1 µM [%]
Cc1cc(-c2nc(C(=O)Nc3cc4c(cnn4C)cc3N3C4CCC3CC(O)C4)co2)ccn1 (stereo not drawn) [Example 38, N—(5-(3-hydroxy-8-azabicyclo[3.2.1]octan-8-yl)-1-methyl-1H-indazol-6-yl)-2-(2-methylpyridin-4-yl)oxazole-4-carboxamide]	77	> 250	5
Cn1ncc2cc(N3CC[C@H](O)C3)c(NC(=O)c3coc(C4=CCNCC4)n3)cc21 [Example 34, (S)—N—(5-(3-hydroxypyrrolidin-1-yl)-1-methyl-1H-indazol-6-yl)-2-(1,2,3,6-tetrahydropyridin-4-yl)oxazole-4-carboxamide hydrochloride]	41		0
